The values that follow come from article PMC7156456, “Modulation of virus-induced NF-κB signaling by NEMO coiled coil mimics” (Nature Communications, 2020).

For one series, the target named is T1, vFLIP/NEMO interaction (Human herpesvirus 8 type P, UniProt F5HEZ4).
T1 construct: vFLIP (1-178) and NEMO (150-272) were cloned into pET28a vector; made in house; host or cells: E. coli BL21(DE3)
The series can be described thus: biochemical. Type of series: binding, Kaposi's sarcoma herpesvirus (KSHV). The method, then: For the competition assay, two-fold serial dilution of the different NEMO mimetics were prepared in DMSO then diluted in TR-FRET buffer to 5× and added in triplicates to a 384 low volume well plate. His-MBP vFLIP diluted to 5× in TR-FRET buffer (250 nM) was then added to each well and incubated for 15 min at RT. His-Biotinylated NEMO diluted to 5× in TR-FRET buffer (250 nM) was the added to the mixture followed by addition of 5× or 200 nM) streptavidin-XL665 and (5× or 1 nM) of the antibody-tagged fluorophore anti-MBPK labeled with Europium cryptate). The final concentration of the NEMO mimetics ranged from 0.195 μM to 100 μM. Total assay volume was 20 μL. The plate was incubated for 1 h at RT then read using BioTek Synergy NEO. Titration of non-biotinylated NEMO (0.0195-10 μM) was used as a positive control in every run. The effect of the peptides on vFLIP/NEMO interaction was normalized to the control and expressed as percent inhibition (% of control):
%ofcontrol=FRETCHD−FRETbackground/FRETcontrol−FRETbackground where FRET control is the TR-FRET signal in DMSO treated wells (highest signal) and FRET background is TR-FRET signal in wells containing the highest concentration of non-biotinylated NEMO (10 μM) which provides the lowest signal. Normalized TR-FRET data was plotted using Graphpad Prism.
Supplementary Figure 1. Schematic representation of the Time-resolved Fluorescence Energy Transfer (TR-FRET) binding assay. (a) Complexes of recombinant his-MBP vFLIP, biotinylated His-NEMO, Europium cryptate conjugated anti-MBP antibody and strepavidin XL665 were used to generate proximity for a FRET signal between the donor fluorophore Europium cryptate and the acceptor fluorophore strepavidin XL665. The TR-FRET signal was calculated as a ratiometric measurement of the acceptor fluoroscence emission at 665nm over the donor emission at 620nm multiplied by 10000. […] (d) Size exclusion chromatography of NEMO-vFLIP complex indicating a shift to the left in absorbance at 280nm when NEMO binds specifically to vFLIP. […]

The subject of series [1] is vFLIP and NEMO levels in Namalwa Mut vFLIP cell line. The series is described as follows: vFLIP protein stability, Namalwa Mut vFLIP cell line. Type of series: cell-based. To be noted: 5 μM, within 2 h of treatment. The method, then: vFLIP protein stability and turnover was measured by treating Namalwa WT vFLIP and NF-kB dead vFLIP mutant cell lines in the presence or absence of 5 μM of the proteasomal inhibitor MG-132 (Calbiochem cat 474790) and 100 μg/mL of the protein synthesis inhibitor cycloheximide (Sigma-Aldrich, cat. 66-81-9). Cells were harvested at the indicated time intervals and lysed in RIPA buffer and supernatants were analyzed by immunoblotting.

The subject of a further series is Namalwa. Also on record: method as in earlier work. To be noted: Burkitt, EBV+, ref 2,3,4 (supplement), read-out: PU-H71 LC50; cited from earlier work.
For another series, the system named is BC-2. Also on record: method as in earlier work. The following applies: BC-2, PEL, KSHV+/EBV+; ref 2,3,4 (supplement); read-out: PU-H71 LC50; cited from earlier work.
Another series relates to BC-3. Also on record: method as in earlier work. To be noted: BC-3, PEL, KSHV+; ref 2,3,4 (supplement); read-out: PU-H71 LC50; cited from earlier work.
The subject of the next series is BC-1. Also on record: method as in earlier work. To be noted: BC-1, PEL, KSHV+/EBV+; ref 2,3,4 (supplement); read-out: PU-H71 LC50; cited from earlier work.
The test system of the next series is BCBL-1. Also on record: method as in earlier work. To be noted: BCBL-1, PEL, KSHV+; ref 2,3,4 (supplement); read-out: PU-H71 LC50; cited from earlier work.
The next series has as its system BC-1 PEL cells. The series can be described thus: Live cell confocal microscopy, cellular uptake. Type of series: cell-based. As for the experimental part:
Cells were then added to 35 mm glass bottom MatTek poly-lysine coated plates (p356c-0-10C) and immunofluorescence images were captured using LSM880 confocal miscroscope with Airyscan resolution detector, spectral detector and incubation. Images were processed using Fiji software (Supplementary Fig. 11).

The target in a further series is full length NEMO (Homo sapiens, UniProt Q9Y6K9). The series is described as follows: Fluorescence polarization direct binding assay, NEMO control. As for the experimental part: The relative affinity of FITC-CHD3^NEMO to MBP-vFLIP were determined using fluorescence polarization-based direct binding assay. The polarization experiments were performed using a DTX 880 Multimode Detector (Beckman) at 25 °C with excitation and emission wavelengths of 485 and 525 nm, respectively. Each polarization experiment was performed in a 96-well round bottom plate (Greiner) in assay buffer: 20 mM Tris-HCl, 150 mM NaCl, 0.5 mM TCEP, 10% glycerol, 0.1% pluronic acid, pH 8. The binding affinity (KD) values reported for each peptide are from experiments performed in triplicate. Raw values were fit to a sigmoidal dose-response nonlinear regression model in Graphad Prism 6.0.
All binding experiments with FITC-labeled CHD peptide to MBP-vFLIP were performed under the same conditions. Briefly, serial dilutions of MBP-vFLIP were made from 75 μM into 100 nM of FITC-labeled CHD peptide in assay buffer. KD was determined using the following equation[56]: KD=RT×1−FSB+LST×FSB2/FSB−LST where, […]
A general note: Polarisation of emitted light reports the rotation of a fluorescent probe.

Each structure is given as a SMILES string. Peptide text beside a SMILES is read from it. * marks the point of attachment. Cbz = O=C(OCc1ccccc1)*

T1 sequence (F5HEZ4 1-178): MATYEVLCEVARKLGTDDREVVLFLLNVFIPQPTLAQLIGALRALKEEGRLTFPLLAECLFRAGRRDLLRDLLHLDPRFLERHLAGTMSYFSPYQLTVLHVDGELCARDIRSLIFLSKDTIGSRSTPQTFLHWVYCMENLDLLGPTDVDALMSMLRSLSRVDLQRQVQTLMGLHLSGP
Sequence of full length NEMO (Q9Y6K9 193-252 limits assumed): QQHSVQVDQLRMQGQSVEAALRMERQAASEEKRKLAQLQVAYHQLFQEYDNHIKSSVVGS

By Ki is commonly meant a dissociation constant, usually derived from enzyme kinetics or from competition with a known ligand. On to `CC[C@H](C)[C@H](NC(=O)[C@H](C)NC(=O)[C@H](CCC(=O)O)NC(C)=O)C(=O)N[C@@H](CCCNC(=N)N)C(=O)N[C@@H](CCC(N)=O)C(=O)N[C@@H](CC(C)C)C(=O)N[C@@H](Cc1c[nH]c2ccccc12)C(=O)N[C@@H](CCC(=O)O)C(=O)N[C@@H](CCC(=O)NC1CCCCC1)C(=O)N[C@H](C(=O)N[C@@H](CCCNC(=N)N)C(=O)N[C@@H](CCCNC(=N)N)C(=O)N[C@@H](CC(C)C)C(=O)N[C@@H](CCCCn1cc(COCc2cn(CCCC[C@H](NC(=O)[C@H](CCCNC(=N)N)NC(=O)[C@H](Cc3ccccc3)NC(=O)[C@H](CC(C)C)NC(=O)[C@H](CCCNC(=N)N)NC(=O)[C@H](C)NC(=O)[C@@H](NC(=O)[C@H](CCC(=O)O)NC(C)=O)[C@@H](C)CC)C(=O)N[C@H](C(=O)N[C@@H](CC(=O)O)C(=O)N[C@@H](CCC(=O)O)C(=O)N[C@@H](CC(C)C)C(=O)N[C@H](C(=O)N[C@@H](CCCNC(=N)N)C(N)=O)[C@@H](C)CC)[C@@H](C)CC)nn2)nn1)C(N)=O)[C@@H](C)CC` [CHD4^NEMO], for which the Ki on vFLIP/NEMO interaction is over 50000 nM.

For the compound `CC(C)C[C@@H](C=O)NC(=O)[C@H](CC(C)C)NC(=O)[C@H](CC(C)C)NC(=O)OCc1ccccc1` [MG132] (Cbz-Leu-Leu-Leu-aldehyde), in [1], the “vFLIP and NEMO protein levels” value is “stabilized vFLIP protein and increased NEMO levels”.

In the case of `CC(C)NCCCn1c(Sc2cc3c(cc2I)OCO3)nc2c(N)ncnc21` [PU-H71], the CC50 is 337 nM in the series on Namalwa; 27.1 nM in the series on BC-2; 63.4 nM in the series with BC-3; 36.9 nM in the series with BC-1; 217 nM with BCBL-1.

As for `CC[C@H](C)[C@H](NC(=O)[C@H](CC(C)C)NC(=O)[C@H](CCC(=O)O)NC(=O)[C@H](CC(=O)O)NC(=O)[C@@H](NC(=O)[C@H](CCCCn1cc(COCc2cn(CCCC[C@H](NC(=O)[C@H](CC(C)C)NC(=O)[C@H](CCCNC(=N)N)NC(=O)[C@H](CCCNC(=N)N)NC(=O)[C@@H](NC(=O)[C@H](CCC(=O)NC3CCCCC3)NC(=O)[C@H](CCC(=O)O)NC(=O)[C@H](Cc3c[nH]c4ccccc34)NC(=O)[C@H](CC(C)C)NC(=O)[C@H](CCC(N)=O)NC(=O)[C@H](CCCNC(=N)N)NC(=O)[C@@H](NC(=O)[C@H](Cc3c[nH]c4ccccc34)NC(=O)[C@H](CCC(=O)O)NC(=O)CCNC(=S)Nc3ccc4c(c3)C(=O)OC43c4ccc(O)cc4Oc4cc(O)ccc43)[C@@H](C)CC)[C@@H](C)CC)C(N)=O)nn2)nn1)NC(=O)[C@H](CCCNC(=N)N)NC(=O)[C@H](Cc1ccccc1)NC(=O)[C@H](CC(C)C)NC(=O)[C@H](CCCNC(=N)N)NC(=O)[C@H](Cc1c[nH]cn1)NC(=O)[C@@H](NC(=O)[C@H](CCC(=O)O)NC(C)=O)[C@@H](C)CC)[C@@H](C)CC)C(=O)N[C@@H](CCCNC(=N)N)C(N)=O` [FITC-CHD3^NEMO], the cellular uptake entry in the series with BC-1 PEL cells (500 nM FITC-labeled peptide, 37 °C, live BC-1 cells) is recorded as “enters BC-1 cells”. In addition, the “cellular uptake at 4 °C / with sodium azide” value in the series on BC-1 PEL cells (4 °C or 10 mM sodium azide) is listed as “reduction in cellular uptake”. For the same compound, on full length NEMO, the “binding to wild-type NEMO coiled coil” value is “does not bind”.

With `CC[C@H](C)[C@H](NC(=O)[C@H](C)NC(=O)[C@H](CCC(=O)O)NC(C)=O)C(=O)N[C@@H](CCCNC(=N)N)C(=O)N[C@@H](CCC(N)=O)C(=O)N[C@@H](CC(C)C)C(=O)N[C@@H](Cc1ccc(O)cc1)C(=O)N[C@@H](CCC(=O)O)C(=O)N[C@@H](CCC(=O)O)C(=O)N[C@H](C(=O)N[C@@H](CCCNC(=N)N)C(=O)N[C@@H](CC(N)=O)C(=O)N[C@@H](CC(C)C)C(=O)N[C@@H](CCCCn1cc(COCc2cn(CCCC[C@H](NC(=O)[C@H](CCCNC(=N)N)NC(=O)[C@H](Cc3ccccc3)NC(=O)[C@H](CC(C)C)NC(=O)[C@H](CCCNC(=N)N)NC(=O)[C@H](Cc3c[nH]cn3)NC(=O)[C@@H](NC(=O)[C@H](CCC(=O)O)NC(C)=O)[C@@H](C)CC)C(=O)N[C@H](C(=O)N[C@@H](CC(=O)O)C(=O)N[C@@H](CCC(=O)O)C(=O)N[C@@H](CC(C)C)C(=O)N[C@H](C(=O)N[C@@H](CCCNC(=N)N)C(N)=O)[C@@H](C)CC)[C@@H](C)CC)nn2)nn1)C(N)=O)[C@@H](C)CC` [CHD1^NEMO], the Ki at vFLIP/NEMO interaction was over 50000 nM.
